# Organism: Rattus norvegicus
# Test: DrugMatrix - Regimen: Daily Repeat
# Format: toxicity, organism-based, Sprague-Dawley
# Set-up: regimen Daily Repeat, gender Male, age 6-8 weeks
# Details: in vivo, po, route oral GAVAGE, […]; for ABSOLUTE BASOPHIL / ABSOLUTE EOSINOPHIL / ABSOLUTE LYMPHOCYTE / ABSOLUTE MONOCYTE / ABSOLUTE SEGMENTED NEUTROPHIL / BASOPHIL / EOSINOPHIL / ERYTHROCYTE COUNT / HEMATOCRIT / HEMOGLOBIN / LEUKOCYTE COUNT / LYMPHOCYTE / MEAN CORPUSCULAR HEMOGLOBIN / MEAN CORPUSCULAR HEMOGLOBIN CONCENTRATION / MEAN CORPUSCULAR VOLUME / MONOCYTE / NEUTROPHIL / NUCLEATED RED BLOOD CELLS / PLATELET COUNT: tissue Blood; for ALANINE AMINOTRANSFERASE / ALBUMIN / ALKALINE PHOSPHATASE / ASPARTATE AMINOTRANSFERASE / BLOOD UREA NITROGEN / CARBON DIOXIDE / CHLORIDE / CHOLESTEROL / CREATINE PHOSPHOKINASE / CREATININE / GLUCOSE / LACTATE DEHYDROGENASE / LIPASE / PHOSPHORUS / POTASSIUM / SODIUM / TOTAL BILIRUBIN / TOTAL PROTEIN / URIC ACID: tissue Plasma
# [1] = 100 mg/kg, 120 h, dose level Low, time 5 day
# [2] = 1000 mg/kg, 72 h, dose level High, time 3 day
# [3] = 1000 mg/kg, 120 h, dose level High, time 5 day
structure (smiles),measurement,setting,value
CCCC[C@@H](CC)COC(=O)c1ccccc1C(=O)OC[C@@H](CC)CCCC [BIS(2-ETHYLHEXYL)PHTHALATE],ABSOLUTE BASOPHIL,[1],0 CELLS/uL
same,ABSOLUTE EOSINOPHIL,[1],0 CELLS/uL
same,ABSOLUTE LYMPHOCYTE,[1],8094 CELLS/uL
same,ABSOLUTE MONOCYTE,[1],0 CELLS/uL
same,ABSOLUTE SEGMENTED NEUTROPHIL,[1],772.67 CELLS/uL
same,BASOPHIL,[1],0%
same,EOSINOPHIL,[1],0%
same,ERYTHROCYTE COUNT,[1],5.86 x10E6/uL
same,HEMATOCRIT,[1],36.1%
same,HEMOGLOBIN,[1],13.63 G/DL
same,LEUKOCYTE COUNT,[1],8.87 x10E3/uL
same,LYMPHOCYTE,[1],92.33%
same,MEAN CORPUSCULAR HEMOGLOBIN,[1],23.33 pg
same,MEAN CORPUSCULAR HEMOGLOBIN CONCENTRATION,[1],37.8 G/DL
same,MEAN CORPUSCULAR VOLUME,[1],61.67 fL
same,MONOCYTE,[1],0%
same,NEUTROPHIL,[1],7.67%
same,NUCLEATED RED BLOOD CELLS,[1],0 /100WBC
same,PLATELET COUNT,[1],682.33 x10E3/uL
same,ALANINE AMINOTRANSFERASE,[1],80 u/L
same,ALBUMIN,[1],4.27 G/DL
same,ALKALINE PHOSPHATASE,[1],577.33 u/L
same,ASPARTATE AMINOTRANSFERASE,[1],98.33 u/L
same,BLOOD UREA NITROGEN,[1],14.67 mg/dL
same,CARBON DIOXIDE,[1],35.67 mmol/L
same,CHLORIDE,[1],99 MEQ/L
same,CHOLESTEROL,[1],41 mg/dL
same,CREATINE PHOSPHOKINASE,[1],172 u/L
same,CREATININE,[1],0.21 mg/dL
same,GLUCOSE,[1],156.33 mg/dL
same,LACTATE DEHYDROGENASE,[1],135.33 u/L
same,LIPASE,[1],22.33 u/L
same,PHOSPHORUS,[1],10.4 mg/dL
same,POTASSIUM,[1],5.25 MEQ/L
same,SODIUM,[1],144.53 MEQ/L
same,TOTAL BILIRUBIN,[1],0.17 mg/dL
same,TOTAL PROTEIN,[1],5.63 G/DL
same,URIC ACID,[1],0.63 mg/dL
same,ABSOLUTE BASOPHIL,[2],0 CELLS/uL
same,ABSOLUTE EOSINOPHIL,[2],0 CELLS/uL
same,ABSOLUTE LYMPHOCYTE,[2],10510 CELLS/uL
same,ABSOLUTE MONOCYTE,[2],28 CELLS/uL
same,ABSOLUTE SEGMENTED NEUTROPHIL,[2],628.67 CELLS/uL
same,BASOPHIL,[2],0%
same,EOSINOPHIL,[2],0%
same,ERYTHROCYTE COUNT,[2],5.07 x10E6/uL
same,HEMATOCRIT,[2],32.33%
same,HEMOGLOBIN,[2],12.8 G/DL
same,LEUKOCYTE COUNT,[2],11.17 x10E3/uL
same,LYMPHOCYTE,[2],93.67%
same,MEAN CORPUSCULAR HEMOGLOBIN,[2],25.3 pg
same,MEAN CORPUSCULAR HEMOGLOBIN CONCENTRATION,[2],39.57 G/DL
same,MEAN CORPUSCULAR VOLUME,[2],63.8 fL
same,MONOCYTE,[2],0.33%
same,NEUTROPHIL,[2],6%
same,NUCLEATED RED BLOOD CELLS,[2],0 /100WBC
same,PLATELET COUNT,[2],532 x10E3/uL
same,ALANINE AMINOTRANSFERASE,[2],82 u/L
same,ALBUMIN,[2],4.03 G/DL
same,ALKALINE PHOSPHATASE,[2],468.67 u/L
same,ASPARTATE AMINOTRANSFERASE,[2],94 u/L
same,BLOOD UREA NITROGEN,[2],14.67 mg/dL
same,CARBON DIOXIDE,[2],26 mmol/L
same,CHLORIDE,[2],96.33 MEQ/L
same,CHOLESTEROL,[2],44.67 mg/dL
same,CREATINE PHOSPHOKINASE,[2],477.67 u/L
same,CREATININE,[2],0.2 mg/dL
same,GLUCOSE,[2],161.67 mg/dL
same,LACTATE DEHYDROGENASE,[2],137 u/L
same,LIPASE,[2],8.67 u/L
same,PHOSPHORUS,[2],10.3 mg/dL
same,POTASSIUM,[2],4.99 MEQ/L
same,SODIUM,[2],137.1 MEQ/L
same,TOTAL BILIRUBIN,[2],0.0667 mg/dL
same,TOTAL PROTEIN,[2],5.33 G/DL
same,URIC ACID,[2],0.77 mg/dL
same,ABSOLUTE BASOPHIL,[3],0 CELLS/uL
same,ABSOLUTE EOSINOPHIL,[3],0 CELLS/uL
same,ABSOLUTE LYMPHOCYTE,[3],8272 CELLS/uL
same,ABSOLUTE MONOCYTE,[3],65 CELLS/uL
same,ABSOLUTE SEGMENTED NEUTROPHIL,[3],663 CELLS/uL
same,BASOPHIL,[3],0%
same,EOSINOPHIL,[3],0%
same,ERYTHROCYTE COUNT,[3],5.57 x10E6/uL
same,HEMATOCRIT,[3],34.07%
same,HEMOGLOBIN,[3],13.37 G/DL
same,LEUKOCYTE COUNT,[3],9 x10E3/uL
same,LYMPHOCYTE,[3],92%
same,MEAN CORPUSCULAR HEMOGLOBIN,[3],24 pg
same,MEAN CORPUSCULAR HEMOGLOBIN CONCENTRATION,[3],39.23 G/DL
same,MEAN CORPUSCULAR VOLUME,[3],61.2 fL
same,MONOCYTE,[3],0.67%
same,NEUTROPHIL,[3],7.33%
same,NUCLEATED RED BLOOD CELLS,[3],0 /100WBC
same,PLATELET COUNT,[3],1014.67 x10E3/uL
same,ALANINE AMINOTRANSFERASE,[3],84.67 u/L
same,ALBUMIN,[3],4.23 G/DL
same,ALKALINE PHOSPHATASE,[3],412.67 u/L
same,ASPARTATE AMINOTRANSFERASE,[3],99 u/L
same,BLOOD UREA NITROGEN,[3],14.33 mg/dL
same,CARBON DIOXIDE,[3],35.33 mmol/L
same,CHLORIDE,[3],100.33 MEQ/L
same,CHOLESTEROL,[3],53 mg/dL
same,CREATINE PHOSPHOKINASE,[3],324.67 u/L
same,CREATININE,[3],0.12 mg/dL
same,GLUCOSE,[3],168.33 mg/dL
same,LACTATE DEHYDROGENASE,[3],165.33 u/L
same,LIPASE,[3],9.33 u/L
same,PHOSPHORUS,[3],10.6 mg/dL
same,POTASSIUM,[3],5.56 MEQ/L
same,SODIUM,[3],144.83 MEQ/L
same,TOTAL BILIRUBIN,[3],0.13 mg/dL
same,TOTAL PROTEIN,[3],5.77 G/DL
same,URIC ACID,[3],0.7 mg/dL

# Reference: ChEMBL document CHEMBL3885881, “DrugMatrix”
